Experimental data: ChEMBL document CHEMBL5543169, “Exploring Subsite Selectivity within Plasmodium vivax N-Myristoyltransferase Using Pyrazole-Derived Inhibitors” (J Med Chem, 2024)

How the values were obtained:
[1] = Inhibition of Plasmodium vivax NMT
[2] = Inhibition of N-terminal 6His-tagged Plasmodium vivax NMT (27 to 410 residues) expressed in Escherichia coli Rosetta 2 (DE3) cells preincubated for 30 mins followed by myrCoA, PfARF and CPM addition by fluorescence based plate reader assay

Row | IC50 [2] [nM] | Compound | IC50 [1] [nM]
1 |  | O=C(c1cccc(NCc2cc(-c3ccc(Cl)cc3)c[nH]c2=O)c1)N1CCOCC1 | 3400
2 | 5070 | Cc1c(CCOc2ccc3ccccc3c2-c2ccnc(N3CCNCC3)c2)c(C(=O)NCC(N)=O)nn1C | 
3 | 80.2 | Cc1nn(C)c(C)c1CCOc1cccnc1-c1cccc(N2CCNCC2)c1 | 
4 | 1000 | Cc1c(CCOc2ccc3ccccc3c2-c2ccnc(N3CCNCC3)c2)c(C(=O)Nc2cccnc2)nn1C | 
